Among the data in ChEMBL document CHEMBL4145517, “Advances on photodynamic therapy of melanoma through novel ring-fused 5,15-diphenylchlorins” (Eur J Med Chem, 2018) are Activity, IC50 and Drug uptake values, retold here.

Data set [1] concerns A-375. The data set can be described thus: Phototoxicity against human A375 cells assessed as reduction in cell viability up to 500 nM preincubated for 24 hrs followed by exposure to light with fluence rate of 7.5 mW/cm2 at 10 J and measured after 24 hrs in presence of singlet oxygen scavenger sodium azide by MTT assay. It is filed as functional, cell-based.
The subject of data set [2] is A-375. The data set can be described thus: Decrease in intracellular superoxide anion generation in human A375 cells at 500 nM preincubated for 24 hrs followed by exposure to light with fluence rate of 7.5 mW/cm2 at 10 J and measured after 24 hrs by dihydroethidium staining-based fluorescence analysis. It is filed as functional, cell-based.
The test system of data set [3] is A-375. The data set is described as follows: Photocytotoxicity against human A375 cells at 5 to 500 nM preincubated for 24 hrs followed by exposure to light with fluence rate of 7.5 mW/cm2 until 5 to 10 J and measured after 24 hrs by MTT assay. The format is functional, cell-based. (In general: Tetrazolium assays rely on reduction of a dye to a coloured formazan, in cell work by metabolically active cells.)

Data set [4] deals with A-375. The data set is described as follows: Photocytotoxicity against human A375 cells at 5 to 50 nM preincubated for 24 hrs followed by exposure to light with fluence rate of 7.5 mW/cm2 until 20J and measured after 24 hrs by MTT assay. The format is functional, cell-based.
Data set [5] relates to A-375. The data set can be described thus: Increase in expression of reduced glutathione in human A375 cells up to 500 nM preincubated for 24 hrs followed by exposure to light with fluence rate of 7.5 mW/cm2 at 10 J and measured after 24 hrs by mercury orange staining-based fluorescence analysis. It is filed as functional, cell-based.
Data set [6] deals with A-375. The data set can be described thus: Induction of apoptosis in human A375 cells assessed as decrease in living cells at 500 nM preincubated for 24 hrs followed by exposure to light with fluence rate of 7.5 mW/cm2 at 10 J and measured after 24 hrs by Annexin-V/propidium iodide stainin-based FACS analysis. The format is functional.
Data set [7] has as its system A-375. The data set is described as follows: Photocytotoxicity against human A375 cells assessed as decrease in cell viability by measuring protein content at >= 50 nM preincubated for 24 hrs followed by exposure to light with fluence rate of 7.5 mW/cm2 at 10 J and measured after 24 hrs by sulforhodamine B assay. The format is functional, cell-based. (In SRB staining, fixed cells bind dye roughly in proportion to their protein.)

Data set [8] relates to A-375. The data set can be described thus: Decrease in intracellular peroxides generation in human A375 cells at 500 nM preincubated for 24 hrs followed by exposure to light with fluence rate of 7.5 mW/cm2 at 10 J and measured after 24 hrs by DCFH2-DA staining-based fluorescence analysis. The format is functional, cell-based.
A short description of data set [9]: Dark toxicity against human A375 cells at 5 to 10 uM after 24 hrs by MTT assay. The note with it: a-375, 24 h. The format is cell-based.
The test system of data set [10] is A-375. The data set can be described thus: Induction of p53 expression in human A375 cells at 50 nM preincubated for 24 hrs followed by exposure to light with fluence rate of 7.5 mW/cm2 at 10 J and measured after 24 hrs by Western blot analysis. The format is functional, cell-based. On the technique in general: A western blot detects proteins with antibodies after separation by electrophoresis.

Data set [11] can be described thus: Dark toxicity against human HFF1 cells at 5 to 10 uM after 24 hrs by MTT assay. It is filed as cell-based. Conditions: hff-1, 24 h.
Data set [12] deals with A-375. The data set is described as follows: Cell cycle arrest in human A375 cells assessed as accumulation at pre-G0 phase up to 500 nM preincubated for 24 hrs followed by exposure to light with fluence rate of 7.5 mW/cm2 at 10 J and measured after 24 hrs by propidium iodide/RNase-staining based flow cytometric analysis. It is filed as functional.
Data set [13] concerns A-375. The data set can be described thus: Photocytotoxicity against human A375 cells preincubated for 24 hrs followed by exposure to light with fluence rate of 7.5 mW/cm2 until 10 J measured after 24 hrs by MTT assay. It is filed as functional, cell-based.
The subject of data set [14] is A-375. The data set is described as follows: Disruption of mitochondrial membrane potential in human A375 cells at 50 nM preincubated for 24 hrs followed by exposure to light with fluence rate of 7.5 mW/cm2 at 10 J and measured after 24 hrs by JC-1 staining-based assay. The format is functional, cell-based.
Data set [15] concerns A-375. The data set can be described thus: Induction of apoptosis in human A375 cells at 50 nM preincubated for 24 hrs followed by exposure to light with fluence rate of 7.5 mW/cm2 at 10 J and measured after 24 hrs by Annexin-V/propidium iodide staining-based FACS analysis. The format is functional, cell-based.
Data set [16] can be described thus: Drug uptake in human A375 cells preincubated for 24 hrs followed by exposure to light with fluence rate of 7.5 mW/cm2 at 10 J measured after 24 hrs by fluorescence spectroscopic analysis. The format is ADME, cell-based. Conditions: a-375, 24 h.
The test system of data set [17] is A-375. The data set is described as follows: Phototoxicity against human A375 cells assessed as reduction in cell viability up to 500 nM preincubated for 24 hrs followed by exposure to light with fluence rate of 7.5 mW/cm2 at 10 J and measured after 24 hrs in presence of hydroxyl radical scavenger D-mannitol by MTT assay. It is filed as functional, cell-based.

Data set [18] has as its system A-375. The data set can be described thus: Disruption of mitochondrial membrane potential in human A375 cells at 500 nM preincubated for 24 hrs followed by exposure to light with fluence rate of 7.5 mW/cm2 at 10 J and measured after 24 hrs by JC-1 staining-based assay. It is filed as functional, cell-based.
Data set [19] relates to A-375. The data set can be described thus: Cell cycle arrest in human A375 cells assessed as accumulation at G2/M phase up to 500 nM preincubated for 24 hrs followed by exposure to light with fluence rate of 7.5 mW/cm2 at 10 J and measured after 24 hrs by propidium iodide/RNase-staining based flow cytometric analysis. The format is functional.
Data set [20] is described as follows: Dark toxicity against human A375 cells at 1 to 10 uM after 24 hrs by MTT assay. Conditions: a-375, 24 h. It is filed as cell-based.
Data set [21] relates to A-375. The data set can be described thus: Cell cycle arrest in human A375 cells assessed as accumulation at G1 phase up to 500 nM preincubated for 24 hrs followed by exposure to light with fluence rate of 7.5 mW/cm2 at 10 J and measured after 24 hrs by propidium iodide/RNase-staining based flow cytometric analysis. The format is functional.
The nature of data set [22]: Dark toxicity against human HFF1 cells at 1 to 10 uM after 24 hrs by MTT assay. It is filed as cell-based. The note with it: hff-1, 24 h.
For data set [23], the system named is A-375. The data set is described as follows: Induction of apoptosis in human A375 cells assessed as increase in necrotic cells at 500 nM preincubated for 24 hrs followed by exposure to light with fluence rate of 7.5 mW/cm2 at 10 J and measured after 24 hrs by Annexin-V/propidium iodide stainin-based FACS analysis. It is filed as functional, cell-based.
The test system of data set [24] is A-375. The data set can be described thus: Induction of apoptosis in human A375 cells assessed as increase in necrotic cells at 50 nM preincubated for 24 hrs followed by exposure to light with fluence rate of 7.5 mW/cm2 at 10 J and measured after 24 hrs by Annexin-V/propidium iodide stainin-based FACS analysis. It is filed as functional, cell-based.

Active and inactive are the calls of the source. The calls are words filed in the database; no cut-off is given here. Bounds are passed on as bounds.

Consider `OCc1nn2c(c1CO)CC1c3nc(cc4ccc([nH]4)c(-c4ccccc4)c4nc(cc5ccc([nH]5)c3-c3ccccc3)C=C4)C1C2` (stereo not drawn), for which the result in the data set with A-375 [1], in the data set with A-375 [2], in the data set on A-375 [3], in the data set on A-375 [4], with A-375 [7] and with A-375 [8] was Active. The outcome with A-375 [10], with A-375 [12], in the data set on A-375 [14], with A-375 [15] and with A-375 [17] was Active. Further, the result in the data set on A-375 [5] and with A-375 [6] was inactive. Further, the Activity result in data set [9] and in data set [11] was “Toxic” each time. The half-maximal inhibitory concentration (IC50) in the data set on A-375 [13] was 2.9 nM. Moreover, in [16], the Drug uptake entry is “Dose-dependent effect”.
In the case of `OCc1nn2c(c1CO)CC1c3cc4ccc([nH]4)c(-c4ccccc4)c4nc(cc5ccc([nH]5)c(-c5ccccc5)c(n3)C1C2)C=C4` (stereo not drawn), the result in the data set on A-375 [1] and in the data set with A-375 [5] was inactive. In addition, the outcome in the data set on A-375 [18], in the data set on A-375 [2], in the data set on A-375 [3], in the data set with A-375 [4], in the data set with A-375 [19] and in the data set on A-375 [7] was Active. Also, the result with A-375 [8], in the data set with A-375 [10], in the data set with A-375 [12], in the data set with A-375 [14], in the data set on A-375 [21] and in the data set with A-375 [15] was Active. Besides, the outcome with A-375 [23] and with A-375 [17] was Active. Also, the values for the Activity (with A-375 [6]; in data set [20]; in [22]) were above 50%, “Non-Toxic” and “Non-Toxic”, respectively. Further, inhibition in the data set on A-375 [13] was half-maximal at 4.9 nM (IC50). In data set [16], the Drug uptake entry is given as “Dose-dependent effect”.
With `COC(=O)c1nn2c(c1C(=O)OC)CC1c3cc4ccc([nH]4)c(-c4ccccc4)c4nc(cc5ccc([nH]5)c(-c5ccccc5)c(n3)C1C2)C=C4` (stereo not drawn), the result with A-375 [1] and in the data set with A-375 [5] was inactive. For the same compound, the outcome in the data set with A-375 [2], with A-375 [3], with A-375 [4], in the data set with A-375 [7], in the data set on A-375 [8] and in the data set on A-375 [10] was Active. The outcome with A-375 [12], with A-375 [14], with A-375 [15] and in the data set on A-375 [17] was Active. Besides, the Activity in the data set on A-375 [6] was above 50%; in data set [20], “Non-Toxic”; in [22], “Non-Toxic”. This compound also had an IC50 in the data set on A-375 [13] of 14.3 nM. In addition, the Drug uptake entry in data set [16] was “Dose-dependent effect”.
As to `COC(=O)c1nn2c(c1C(=O)OC)CC1c3nc(cc4ccc([nH]4)c(-c4ccccc4)c4nc(cc5ccc([nH]5)c3-c3ccccc3)C=C4)C1C2` (stereo not drawn), the result with A-375 [1], in the data set on A-375 [18], with A-375 [2], in the data set on A-375 [3], in the data set on A-375 [4] and in the data set with A-375 [7] was Active. For the same compound, the outcome in the data set on A-375 [8], in the data set with A-375 [10], in the data set on A-375 [12], with A-375 [14], with A-375 [17] and with A-375 [24] was Active. In addition, the outcome with A-375 [5] was inactive. Besides, the results for the Activity (in the data set on A-375 [6]; in data set [20]; in [22]) were above 50%, “Non-Toxic” and “Non-Toxic”, respectively. The compound further displayed an IC50 with A-375 [13] of 14.5 nM. Besides, the Drug uptake entry in data set [16] is reported as “Dose-dependent effect”.

Broadly, the IC50 is the concentration at which inhibition is half-maximal.
